Measurements from patent US20250340574A1, “MODULATORS OF CYSTIC FIBROSIS TRANSMEMBRANE CONDUCTANCE REGULATOR” (Vertex Pharmaceuticals Incorporated, priority 2022, published 2025).

Experiments:
[1] = target: T1, CFTR (F508del/MF-HBE cells) (Homo sapiens, UniProt P13569, DEL508-508); experiment: Ussing chamber assay of CFTR-mediated short-circuit currents, Assay B (0.00001 μM to 25 μM, 12 concentrations); format: cell-based; settings: with 33 nM potentiator and 18 μM Tezacaftor, 20% human serum; for Emax: 18-24 hours, read-out: B Max activity (%)
T1 construct: human bronchial epithelial (HBE) cells derived from CF subjects heterozygous for F508del and a minimal function CFTR mutation (F508del/MF-HBE); endogenous in cells; host or cells: Primary human bronchial epithelial cells from CF subjects (F508del/MF genotype), differentiated at an air-liquid interface
Experimental: (§1) Ussing chamber experiments were performed using human bronchial epithelial (HBE) cells derived from CF subjects heterozygous for F508del and a minimal function CFTR mutation (F508del/MF-HBE) and cultured as previously described (Neuberger T, Burton B, Clark H, Van Goor F Methods Mol Biol 2011:741:39-54). After four days the apical media was removed, and the cells were grown at an air liquid interface for >14 days prior to use.
(§2) To isolate the CFTR-mediated short-circuit (ISC) current, F508del/MF-HBE grown on Costar® Snapwell™ cell culture inserts were mounted in an Ussing chamber and the transepithelial ISC was measured under voltage-clamp recording conditions (Vhold=0 mV) at 37° C. The basolateral solution contained (in mM) 145 NaCl, 0.83 K2HPO4, 3.3 KH2PO4, 1.2 MgCl2, 1.2 CaCl2, 10 Glucose, 10 HEPES (pH adjusted to 7.4 with NaOH) and the apical solution contained (in mM) 145 NaGluconate, 1.2 MgCl2, 1.2 CaCl2, 10 glucose, 10 HEPES (pH adjusted to 7.4 with NaOH) and 30 μM amiloride to block the epithelial sodium channel. Forskolin (20 μM) was added to the apical surface to activate CFTR, followed by apical addition of a CFTR inhibitor cocktail consisting of BPO, GlyH-101, and CFTR inhibitor 172 (each at 20 μM final assay concentration) to specifically isolate CFTR currents. The CFTR-mediated ISC (μA/cm^2) for each condition was determined from the peak forskolin response to the steady-state current following inhibition.
(§3) The activity of the CFTR corrector compounds on the CFTR-mediated ISC was determined in Ussing chamber studies as described above. The F508del/MF-HBE cell cultures were either incubated with the corrector compounds at a range of concentrations in combination with 33 nM (6R,12R)-17-amino-12-methyl-6,15-bis(trifluoromethyl)-13,19-dioxa-3,4,18-triazatricyclo[12.3.1.12,5]nonadeca-1(18),2,4,14,16-pentaen-6-ol and 18 μM Tezacaftor or were incubated with the corrector compounds at a single fixed concentration of 1 μM in combination with 44 nM (6R,12R)-17-amino-12-methyl-6,15-bis(trifluoromethyl)-13,19-dioxa-3,4,18-triazatricyclo[12.3.1.12,5]nonadeca-1(18),2,4,14,16-pentaen-6-ol and 18 μM Tezacaftor for 18-24 hours at 37° C. and in the presence of 20% human serum. The concentration of corrector compounds with 44 nM or 33 nM (6R,12R)-17-amino-12-methyl-6,15-bis(trifluoromethyl)-13,19-dioxa-3,4,18-triazatricyclo[12.3.1.12,5]nonadeca-1(18),2,4,14,16-pentaen-6-ol and 18 μM Tezacaftor during the 18-24 hours incubations was kept constant throughout the Ussing chamber measurement of the CFTR-mediated ISC to ensure compounds were present throughout the entire experiment. The efficacy and potency of the putative F508del correctors was compared to that of the known Vertex corrector, (14S)-8-[3-(2-{Dispiro[2.0.2.1]heptan-7-yl}ethoxy)-1H-pyrazol-1-yl]-12,12-dimethyl-2λ^6-thia-3,9,11,18,23-pentaazatetracyclo[17.3.1.111,14.05,10]tetracosa-1(22),5,7,9,19(23),20-hexaene-2,2,4-trione, in combination with 18 μM Tezacaftor and 1 μM Ivacaftor.
(§4) • Assay A: 0.1 μM to 25 μM, 6 concentrations • Assay B: 0.00001 μM to 25 μM, 12 concentrations • Assay C: 0.026 μM to 25 μM, 6 concentrations • Assay D: Activity at single concentration of 1 μM

[2] = target: T1, CFTR (F508del/MF-HBE cells); experiment: Ussing chamber assay of CFTR-mediated short-circuit currents, Assay A (0.1 μM to 25 μM, 6 concentrations); format: cell-based; settings: with 33 nM potentiator and 18 μM Tezacaftor, 20% human serum; for Emax: 18-24 hours, read-out: A Max activity (%)
Experimental: as §1, §2, §3, §4

T1 sequence (P13569 with tags, fused parts or gaps DEL508-508): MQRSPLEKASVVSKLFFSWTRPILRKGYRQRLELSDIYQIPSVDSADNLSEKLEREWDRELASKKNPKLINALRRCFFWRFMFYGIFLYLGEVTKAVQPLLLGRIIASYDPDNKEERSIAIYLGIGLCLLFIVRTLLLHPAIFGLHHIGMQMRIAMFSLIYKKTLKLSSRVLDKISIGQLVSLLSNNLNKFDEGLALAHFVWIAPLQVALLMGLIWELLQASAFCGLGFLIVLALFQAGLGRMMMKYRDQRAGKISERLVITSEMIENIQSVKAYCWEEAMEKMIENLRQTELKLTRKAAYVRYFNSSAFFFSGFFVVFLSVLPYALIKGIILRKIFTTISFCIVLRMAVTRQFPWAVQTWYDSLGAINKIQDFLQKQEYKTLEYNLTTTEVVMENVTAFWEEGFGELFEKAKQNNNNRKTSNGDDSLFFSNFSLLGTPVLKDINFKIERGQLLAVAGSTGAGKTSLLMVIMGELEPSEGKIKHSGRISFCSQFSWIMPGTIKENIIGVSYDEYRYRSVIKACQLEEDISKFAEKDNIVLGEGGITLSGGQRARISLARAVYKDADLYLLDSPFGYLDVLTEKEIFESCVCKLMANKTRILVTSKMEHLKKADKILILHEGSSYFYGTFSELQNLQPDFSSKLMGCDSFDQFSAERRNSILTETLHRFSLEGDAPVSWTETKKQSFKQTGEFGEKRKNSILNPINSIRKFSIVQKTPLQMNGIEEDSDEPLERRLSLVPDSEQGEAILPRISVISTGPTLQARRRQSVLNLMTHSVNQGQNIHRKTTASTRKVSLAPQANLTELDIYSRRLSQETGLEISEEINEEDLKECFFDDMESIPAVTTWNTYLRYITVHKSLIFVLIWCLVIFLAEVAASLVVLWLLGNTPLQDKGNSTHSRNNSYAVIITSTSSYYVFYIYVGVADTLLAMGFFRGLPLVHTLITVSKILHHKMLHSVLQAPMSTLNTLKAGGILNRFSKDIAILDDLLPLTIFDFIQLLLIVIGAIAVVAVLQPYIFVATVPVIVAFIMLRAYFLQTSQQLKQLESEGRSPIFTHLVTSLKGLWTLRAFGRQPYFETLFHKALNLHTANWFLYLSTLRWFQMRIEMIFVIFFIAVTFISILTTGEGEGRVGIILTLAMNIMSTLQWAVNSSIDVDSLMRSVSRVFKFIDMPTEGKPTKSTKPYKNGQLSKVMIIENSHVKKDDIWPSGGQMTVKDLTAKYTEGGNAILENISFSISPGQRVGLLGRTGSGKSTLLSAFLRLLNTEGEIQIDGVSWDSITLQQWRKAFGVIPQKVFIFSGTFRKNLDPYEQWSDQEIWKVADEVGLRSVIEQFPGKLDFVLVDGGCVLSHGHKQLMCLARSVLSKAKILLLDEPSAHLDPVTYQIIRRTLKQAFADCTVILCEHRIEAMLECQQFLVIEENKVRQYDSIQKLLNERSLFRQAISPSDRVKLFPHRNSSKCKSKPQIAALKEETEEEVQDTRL

Emax [1] [%] | EC50 [1] [µM] | Emax [2] [%] | EC50 [2] [nM] | SMILES
> 60 | < 1 | – | – | Cc1cccc(C)c1-c1nc2nc(c1C)OC[C@@H](CC(C)(C)C)N(Cc1cnc3nc(C(C)C)n(C)c3n1)C(=O)c1cccc(c1)S(=O)(=O)N2 [Compound I-167]
> 60 | 3 to 30 | – | – | Cc1cccc(C)c1-c1cc2nc(n1)NS(=O)(=O)c1cccc(c1)C(=O)N(Cc1cnc3oc(C4CCC4)cc3n1)[C@H](COC(C)C)CO2 [Compound I-138]
> 60 | 3 to 30 | – | – | Cc1cccc(C)c1-c1cc2nc(n1)NS(=O)(=O)c1cccc(c1)C(=O)N(Cc1cnc3cc(C4CC4)n(C)c3n1)[C@H](COC(C)C)CO2 [Compound I-151]
– | – | > 60 | < 1000 | Cc1cccc(C)c1-c1cc2nc(n1)NS(=O)(=O)c1cccc(c1)C(=O)N(Cc1cnc3oc(C)c(C4CC4)c3n1)[C@H](CCC(C)(C)C)CO2 [Compound I-27]
– | – | > 60 | < 1000 | Cc1cccc(C)c1-c1cc2nc(n1)NS(=O)(=O)c1cccc(c1)C(=O)N(Cc1nc3c(C(C)C)cccc3o1)[C@H](CC(C)(C)C)CO2 [III-7]
– | – | > 60 | < 1000 | Cc1cccc(C)c1-c1cc2nc(n1)NS(=O)(=O)c1cccc(c1)C(=O)N(Cc1cnc3oc(C(C)C)c(C)c3n1)[C@H](COC(C)C)CO2 [Compound I-10]
– | – | > 60 | < 1000 | Cc1cccc(C)c1-c1cc2nc(n1)NS(=O)(=O)c1cccc(c1)C(=O)N(Cc1cnc3c(n1)CC(C(C)C)O3)[C@H](CC1(C)CC1)CO2 (single isomer, unassigned) [III-13]
– | – | > 60 | < 1000 | Cc1cccc(C)c1-c1cc2nc(n1)NS(=O)(=O)c1cccc(c1)C(=O)N(Cc1cnc3oc(C4CC4)cc3n1)[C@H](CC(C)(C)F)CO2 [Compound I-51]
– | – | > 60 | < 1000 | Cc1cccc(C)c1-c1cc2nc(n1)NS(=O)(=O)c1cccc(c1)C(=O)N(Cc1cnc3oc(C(C)C)c(C#N)c3n1)[C@H](COC(C)C)CO2 [Compound I-91]
– | – | > 60 | < 1000 | Cc1cccc(C)c1-c1cc2nc(n1)NS(=O)(=O)c1cccc(c1)C(=O)N(Cc1cnc3oc(C(C)C)c(C)c3n1)[C@H](CC1(C)CC1)CO2 [Compound I-17]
– | – | > 60 | < 1000 | Cc1cccc(C)c1-c1cc2nc(n1)NS(=O)(=O)c1cccc(c1)C(=O)N(Cc1cnc3oc(C(C)C)cc3n1)[C@H](CCC(C)(C)F)CO2 (single isomer, unassigned) [Compound I-36]
– | – | > 60 | < 1000 | Cc1cccc(C)c1-c1cc2nc(n1)NS(=O)(=O)c1cccc(c1)C(=O)N(Cc1cnc3oc(C(C)C)cc3n1)[C@H](CCC(C)C)CO2 [Compound I-2]
– | – | > 60 | < 1000 | Cc1cccc(C)c1-c1cc2nc(n1)NS(=O)(=O)c1cccc(c1)C(=O)N(Cc1cnc3oc(C(C)C)c(C)c3n1)[C@H](CCC(C)(C)C)CO2 [Compound I-11]
– | – | > 60 | < 1000 | Cc1cccc(C)c1-c1cc2nc(n1)NS(=O)(=O)c1cccc(c1)C(=O)N(Cc1cnc3cc(C(C)C)n(C)c3n1)[C@H](CCC1(C)CCC1)CO2 [Compound I-41]
– | – | > 60 | < 1000 | Cc1cccc(C)c1-c1cc2nc(n1)NS(=O)(=O)c1cccc(c1)C(=O)N(Cc1cnc3oc(C(C)C)c(C#N)c3n1)[C@H](CC1(C)CC1)CO2 [Compound I-53, 2-[[(11R)-6-(2,6-dimethylphenyl)-11-[(1-methylcyclopropyl)methyl]-2,2,13-trioxo-9-oxa-2λ^6-thia-3,5,12,19-tetrazatricyclo[12.3.1.14,8]nonadeca-1(18),4(19),5,7,14,16-hexaen-12-yl]methyl]-6-isopropyl-furo[2,3-b]pyrazine-7-carbonitrile]
– | – | > 60 | < 1000 | Cc1cccc(C)c1-c1cc2nc(n1)NS(=O)(=O)c1cccc(c1)C(=O)N(Cc1cnc3cc(C(C)C)n(C)c3n1)[C@H](C[C@@H]1CCCO1)CO2 (stereo in doubt) [Compound I-16]
– | – | 30 to 60 | 1000 to 3000 | Cc1cccc(C)c1-c1cc2nc(n1)NS(=O)(=O)c1cccc(c1)CN(C(=O)c1cncc(N(C)C3CCC3)n1)[C@H](CC(C)(C)C)CO2 [II-36]
– | – | 30 to 60 | < 1000 | Cc1cccc(C)c1-c1cc2nc(n1)NS(=O)(=O)c1cccc(c1)C(=O)N(Cc1cnc3oc(C(C)C)cc3n1)[C@H](CC1CCOCC1)CO2 [Compound I-30, (11R)-6-(2,6-dimethylphenyl)-12-[(6-isopropylfuro[2,3-b]pyrazin-2-yl)methyl]-2,2-dioxo-11-(tetrahydropyran-4-ylmethyl)-9-oxa-2λ^6-thia-3,5,12,19-tetrazatricyclo[12.3.1.14,8]nonadeca-1(18),4(19),5,7,14,16-hexaen-13-one]
– | – | > 60 | < 1000 | Cc1cccc(C)c1-c1cc2nc(n1)NS(=O)(=O)c1cccc(c1)C(=O)N(Cc1cnc3oc(C4CC4)cc3n1)[C@H](CC1(C)CC1)CO2 [Compound I-25]
– | – | > 60 | < 1000 | Cc1cccc(C)c1-c1cc2nc(n1)NS(=O)(=O)c1cccc(c1)C(=O)N(C(=O)c1cncc(N(C)C3CCC3)n1)[C@H](CC(C)(C)C)CO2 [II-32]
– | – | > 60 | < 1000 | Cc1cccc(C)c1-c1cc2nc(n1)NS(=O)(=O)c1cccc(c1)C(=O)N(Cc1cnc3oc(C(C)C)cc3n1)[C@H](CC1CCCO1)CO2 (single isomer, unassigned) [Compound I-18]
– | – | > 60 | < 1000 | Cc1cccc(C)c1-c1cc2nc(n1)NS(=O)(=O)c1cccc(c1)C(=O)N(Cc1cn3cccc(C#N)c3n1)[C@H](CC(C)(C)C)CO2 [III-10]
– | – | > 60 | < 1000 | Cc1cccc(C)c1-c1cc2nc(n1)NS(=O)(=O)c1cccc(c1)C(=O)N(Cc1cnc3cc(C(C)C)n(C)c3n1)[C@H](C[C@H]1CCCCO1)CO2 [Compound I-3]
– | – | > 60 | < 1000 | Cc1cccc(C)c1-c1cc2nc(n1)NS(=O)(=O)c1cccc(c1)C(=O)N(Cc1cnc3nc(C(C)C)n(C)c3n1)[C@H](CC1(C)CC1)CO2 [Compound I-75]
– | – | > 60 | < 1000 | Cc1cccc(C)c1-c1cc2nc(n1)NS(=O)(=O)c1cccc(c1)C(=O)N(Cc1cnc3cc(C(C)C)n(C)c3n1)[C@H](CC13CC(C1)C3)CO2 [Compound I-40]
– | – | > 60 | < 1000 | Cc1cccc(C)c1-c1cc2nc(n1)NS(=O)(=O)c1cccc(c1)C(=O)N(Cc1nc3c(cc1F)nc(C(C)C)n3C)[C@H](CC(C)(C)C)CO2 [Compound I-69]
– | – | > 60 | < 1000 | Cc1cccc(C)c1-c1cc2nc(n1)NS(=O)(=O)c1cccc(c1)C(=O)N(Cc1cn3ccc(C(C)C)cc3n1)[C@H](CC(C)(C)C)CO2 [III-1, (11R)-6-(2,6-dimethylphenyl)-11-(2,2-dimethylpropyl)-12-[(7-isopropylimidazo[1,2-a]pyridin-2-yl)methyl]-2,2-dioxo-9-oxa-2λ^6-thia-3,5,12,19-tetrazatricyclo[12.3.1.14,8]nonadeca-1(18),4(19),5,7,14,16-hexaen-13-one]
– | – | – | < 1000 | Cc1cccc(C)c1-c1cc2nc(n1)NS(=O)(=O)c1cccc(c1)C(=O)N(Cc1cnc3c(n1)CC(C(C)C)O3)[C@H](CC1(C)CC1)CO2 (single isomer, unassigned) [III-14]
